Measurements as given in patent US5512549A, “Glucagon-like insulinotropic peptide analogs, compositions, and methods of use” (Eli Lilly and Company, priority 1994, dated 1996).
Blank lines part the entries; values can stand above or below the substance they belong to.

How the values were obtained:
[1] = system: beagles; test: Dog I.V. Hyperglycemic (150 mg/dl) Clamp Test; format: in vivo; settings: I.V. 1.0 μg/kg
Method: (§1) a) Hyperglycemic Clamp Studies
(§2) Experiments were conducted in overnight-fasted, conscious, adult (1-2 years of age) male and female beagles weighing 8-15 kg. At least ten days prior to the study, animals were anesthetized with isoflurane, and a cut-down was made in the left or right inguinal region. Silastic catheters were inserted into the femoral artery and the proximal caudal femoral vein and secured with 4-0 silk suture. The free ends of the catheters were passed subcutaneously to the back using a trocar needle. The catheters were then filled with a glycerol/heparin solution (3:1, v/v; final heparin concentration of 250 KIU/ml), and the free ends were knotted and placed in a subcutaneous pocket to allow complete closure of the skin. Keflex® was administered both pre-operatively (20 mg/kg, IV and 20 mg/kg, I.M.) and post-operatively (250 mg, p.o. once daily for seven days) to prevent infections. Torbugesic (1.5 mg/kg, I.M.) was administered post-operativelyto control pain.
(§3) Blood was drawn just prior to the study day to determine the health of the animal. Only animals with hematocrits above 38% and leukocyte counts below 16,000/mm^3 were used.
(§4) The afternoon before the experiment, the free ends of the catheters were exteriorized from the subcutaneous pocket through a small incision made under local anesthesia (2% lidocaine), and the dog was fitted with a tether system jacket and collar assembly.
(§5) The morning of the experiment, the contents of the catheters were aspirated, the catheters were flushed with saline, and extension lines (protected by a stainless steel tether) were attached to the catheters. On mornings of IV injection experiments, an over-the-needle, teflon catheter was inserted percutaneously into a cephalic vein in preparation for the administration of an IV bolus of test substance. The dog was placed in a metabolic cage, and the catheter extension lines and tether were attached to a swivel system to allow the dog to move freely about the cage. At this time (-60 minutes), an exogenous infusion of glucose (50% w/v in water) was begun through the chronic venous catheter. Glucose was infused in a descending stepwise fashion over the first six minutes of the study to rapidly raise the plasma glucose concentration to 150 mg/dl. Plasma glucose concentrations were determined every 2.5 to 7.5 minutes throughout the remainder of the study, and the glucose infusion rate was adjusted appropriately to maintain the plasma glucose concentration at 150 mg/dl.
(§6) Sixty minutes after the start of the glucose infusion (time 0), test substance was administered either intravenously (1.0, 2.9, 5.0 or 10.0 μg/kg; dose dissolved in 2 ml of saline containing 0.3% dog albumin, w/v) through the previously inserted teflon catheter or subcutaneously (10 μg/kg; 150 μM in phosphate buffered saline) in the dorsal aspect of the neck.
(§7) Arterial blood samples (3.5 ml) were taken at -30, -15, 0, 2.5, 5, 7.5, 10, 12.5, 15, 20, 30, 45, 60, 75, 90, 105 and 120 minutes during the IV studies and at -30, -15, 0, 3, 6, 9, 12, 15, 20, 30, 45, 60, 75, 90, 105 and 120 minutes during the SC studies. Samples were collected in vacuum blood collection tubes containing disodium EDTA and immediately placed on ice. To prevent proteolytic cleavage of GLP-1(7-37) in the plasma samples, 1.5 ml of the EDTA containing blood were transferred to a polypropylene tube containing 40 μl of aprotinin (10,000 KIU/ml) and mixed well. The samples were centrifuged, and the resulting plasma was transferred to polypropylene test tubes and stored on ice for the duration of the study.
(§8) At the conclusion of the experiment, the animal was anesthetized (isoflurane); the catheters were flushed with fresh saline and filled with the glycerol/heparin mixture; the free ends of the catheters were knotted and placed subcutaneously as described earlier; and antibiotic was administered (300 mg Keflex®, I.M.). […]

[2] = system: Sprague Dawley or Zucker Diabetic Fatty rats; test: Rat IV Glucose (1 g/kg) Tolerance Test; format: in vivo; settings: for Insulin Change AUC: 0-15 min
Method: a) Glucose Tolerance Tests
Experiments were conducted in overnight-fasted, conscious, male Sprague Dawley (Charles River) or Zucker Diabetic Fatty (Genetic Models, Inc.) rats weighing approximately 250 (Sprague Dawley rats) or 300 (Zucker Diabetic Fatty rats) grams. Four to five days prior the study, rats were anesthetized with isoflurane, and a polyethylene (PE50) catheter was inserted into the right jugular vein. The catheter was secured with a wound clip, filled with saline containing heparin (2% sodium heparin), and closed with a small stainless steel plug.
After a sixteen-hour fast, twelve chronically cannulated rats were separated into four groups of three rats per group. 0.4 ml of blood was taken from the tail vein, collected into a microtainer tube containing lithium heparin, and immediately placed on ice (zero minute sample). A glucose bolus (1.0 g/kg; 50% glucose (w/v) in water) was administered via the indwelling jugular cannula, and the cannula was rinsed with 200 μl of saline. Twenty seconds later a bolus of test substance 100 μl/100 g body weight of either vehicle (saline containing 0.3% (w/v) bovine serum albumin) or vehicle containing analog! was administered through the jugular cannula, and the cannula was rinsed as before. Rats were bled from the tail again at 2, 5, 10, 20 and 30 minutes after the administration of the glucose bolus, and the samples were treated as described above. At the end of the experiment, blood samples were centrifuged, and the plasma was collected.
Plasma glucose concentrations were determined the day of the experiment using a coupled hexokinase procedure in a clinical chemistry analyzer. Plasma for insulin determinations were diluted with zero calibrator and frozen at -20° C. until time for analysis. Insulin concentrations were determined using a commercial radioimmunoassay kit with rat insulin as the standard.
Insulin change (the change in insulin from the baseline value) was calculated as the difference between the insulin concentration at time t and the insulin concentration at zero time. The area under the insulin change curve was calculated using the trapezoidal rule. Plasma glucose change (the increase in plasma glucose above the baseline value) was calculated as the difference between the plasma glucose concentration at time t and the plasma glucose concentration at zero time. The area under the plasma glucose change curve was calculated using the trapezoidal rule. Values are listed as the mean ± the standard error of the mean (SEM).

[3] = biological target: T1, rat GLP-1 receptor (Rattus norvegicus, UniProt P32301); test: cAMP Assay (in vitro receptor binding assay) on membrane preparation; format: biochemical; settings: cAMP production, CHO membranes expressing rat GLP-1 receptor; mean ± spread
T1 construct: expressed in transfected cells; host or cells: CHO DXB-11 (Chinese hamster ovary) cells, used as a membrane preparation
T1 sequence (P32301 22-463): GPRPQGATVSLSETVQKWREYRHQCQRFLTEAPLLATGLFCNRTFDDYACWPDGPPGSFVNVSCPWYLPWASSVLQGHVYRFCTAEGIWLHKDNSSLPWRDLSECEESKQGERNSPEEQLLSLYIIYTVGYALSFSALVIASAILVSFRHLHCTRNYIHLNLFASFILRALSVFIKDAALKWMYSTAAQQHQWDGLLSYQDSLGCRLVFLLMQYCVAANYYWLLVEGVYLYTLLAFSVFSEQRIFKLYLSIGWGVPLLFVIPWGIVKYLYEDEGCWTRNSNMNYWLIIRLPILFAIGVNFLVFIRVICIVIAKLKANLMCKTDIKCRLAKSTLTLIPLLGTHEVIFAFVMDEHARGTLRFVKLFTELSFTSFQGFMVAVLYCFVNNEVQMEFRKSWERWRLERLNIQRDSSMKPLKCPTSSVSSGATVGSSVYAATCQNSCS
Method: A sample of the membrane preparation was preincubated with a test compound or a control compound in buffer (25 mM HEPES, 0.2% (w/v) BSA, pH 7.6) at 32° C. for 10 minutes. Reaction buffer (final concentration: 25 mM HEPES, 0.2% (w/v) BSA, 2.6 mM Mg, 0.8 mMATP, 0.1 mM GTP, 5 mM creatine phosphate, creatine kinase 50 U/ml, 0.2 mM IBMX, pH 7.6) was added and incubated for an additional 30 minutes. Incubations were stopped by adding 10 mM EDTA.
Production of cAMP was assayed using a fluorescent tracer-immuno assay method. In brief, after the incubation was stopped, fluorescent tracer (cAMP-b phycoerythrin conjugate) was added followed by the addition of affinity purified anti-cAMP rabbit antiserum. After incubation at room temperature for 45 minutes, anti-rabbit IgG coated assay beads were added and incubated for an additional 15 minutes. Plates were then evacuated and read on a Pandex PFCIA reader.
Fluorescent intensity values were correlated to rate of cAMP production (pmol/min/mg).

[4] = system: beagles; test: Dog S.C. Hyperglycemic (150 mg/dl) Clamp Test; format: in vivo; settings: S.C. 10 μg/kg
Method: as §1, §2, §3, §4, §5, §6, §7, §8

[5] = 120 minute test period, mean ± SEM

Substance: GLP-1(7-36)NH2
- GIR Change AUC ([1]; 0-60 min, mean ± SEM): 414 ± 73 mg/kg
- Insulin Change AUC ([1]; 0-60 min, mean ± SEM): 32 ± 8 ng·min/mL
- Max Insulin Change [1, 5]: 3.4 ± 0.6 ng/mL
- Duration of Insulin Effect ([1]; time average insulin change consistently ≥0.5 ng/ml): 2.5 min
- Insulin Change at 10 min ([2]; IV dose 0.2 mg/kg): 1.8 ng/mL
- Max Insulin Change ([2]; IV dose 0.2 mg/kg): 4.0 ng/mL
- Insulin Change AUC ([2]; IV dose 0.2 mg/kg): 34 ± 4 ng·min/mL
- Insulin Change at 10 min ([2]; IV dose 0.3 mg/kg): 2.2 ng/mL
- Max Insulin Change ([2]; IV dose 0.3 mg/kg): 6.1 ng/mL
- Insulin Change AUC ([2]; IV dose 0.3 mg/kg): 50 ± 13 ng·min/mL
- Insulin Change at 10 min ([2]; IV dose 0.4 mg/kg): 3.8 ng/mL
- Max Insulin Change ([2]; IV dose 0.4 mg/kg): 7.7 ng/mL
- Insulin Change AUC ([2]; IV dose 0.4 mg/kg): 73 ± 14 ng·min/mL
- Insulin Change at 10 min ([2]; IV dose 0.6 mg/kg): 3.4 ng/mL
- Max Insulin Change ([2]; IV dose 0.6 mg/kg): 7.7 ng/mL
- Insulin Change AUC ([2]; IV dose 0.6 mg/kg): 67 ± 11 ng·min/mL
- Insulin Change at 10 min ([2]; IV dose 0.8 mg/kg): 4.1 ng/mL
- Max Insulin Change ([2]; IV dose 0.8 mg/kg): 11.3 ng/mL
- Insulin Change AUC ([2]; IV dose 0.8 mg/kg): 97 ± 25 ng·min/mL
- Insulin Change at 10 min ([2]; IV dose 1.0 mg/kg): 3.9 ng/mL
- Max Insulin Change ([2]; IV dose 1.0 mg/kg): 11.4 ng/mL
- Insulin Change AUC ([2]; IV dose 1.0 mg/kg): 89 ± 16 ng·min/mL
- Insulin Change at 10 min ([2]; IV dose 2.0 mg/kg): 4.9 ng/mL
- Max Insulin Change ([2]; IV dose 2.0 mg/kg): 11.7 ng/mL

- % Relative Potency [3]: 108.2 ± 22.4%
Substance: N- Imidazole-α,α-dimethyl-acetyl!GLP-1 (8-37)OH [α,α-imidazoacetyl-GLP-1(8-37)OH]

Substance: Arg^26 -Lys^34 -N^ε -octanoyl-GLP-1(8-37)OH [Arg^26-Lys^34-N^ε-octanoyl-GLP-1(8-37)OH]
- GIR Change AUC ([4]; 0-120 min, mean ± SEM): 659 ± 182 mg/kg
- Insulin Change AUC ([4]; 0-120 min, mean ± SEM): 11 ± 26 ng·min/mL
- Max Insulin Change [4, 5]: 0.6 ± 0.4 ng/mL
- Duration of Insulin Effect ([4]; time average insulin change consistently >0.5 ng/ml): not active
